From patent publication EP0339681B1, “Antitumor antibiotic substance” (MEIJI SEIKA KAISHA LTD., priority 1988, dated 1989)
In brackets after ≈: the same amount, converted by molar mass.

Key:
[1] = test system: infection; settings: mouse, in vivo; cited from earlier work
[2] = test system: P-388 tumor cells; assay: Therapeutic test on mice with intraperitoneally transplanted P-388 tumor cells; assay type: in vivo, mouse; settings: intraperitoneally once a day for two days
Description: To evaluate antitumor activity of the test compounds, the following therapeutic test was conducted.
P-388 tumor cells were transplanted into the abdominal cavity of a mouse. A test compound was intraperitoneally administered to the animal once a day for two days. The effect thus observed is expressed in ILS (%). [formula]

[3] = test system: P-388 mouse leukemia cells; assay: Cytotoxic effect: 50% growth inhibition of P-388 cells; settings: P388, 72 h, read-out: IC₅₀

SMILES: COC(=O)C1(C)Nc2c(O)cc3c(c2C1=O)C(CO)CN3C(=O)c1cc2cc(OC)c(OC)c(OC)c2[nH]1 (stereo not drawn)
- therapeutic effect on infection [1]: therapeutic effect on infection

SMILES: COC(=O)C1(C)Nc2c(OS(C)(=O)=O)cc3c(c2C1=O)C(COS(C)(=O)=O)CN3C(=O)c1cc2cc(OC)c(OC)c(OC)c2[nH]1 (stereo not drawn) [Compound 1]
- ILS (%) ([2]; Dose 2.4 mg/kg): 40%
- ILS (%) ([2]; Dose 7 mg/kg): 40%
- ILS (%) ([2]; Dose 21 mg/kg): 54%
- IC50 [3]: 0.06 µg/mL (≈ 0.088 µM)

SMILES: COC(=O)C1(C)Nc2c(OS(C)(=O)=O)cc3c(c2C1=O)C(CO)CN3C(=O)c1cc2cc(OC)c(OC)c(OC)c2[nH]1 (stereo not drawn) [Compound 2]
- ILS (%) ([2]; Dose 0.25 mg/kg): 15%
- ILS (%) ([2]; Dose 0.5 mg/kg): 40%
- ILS (%) ([2]; Dose 1 mg/kg): 40%
- IC50 [3]: 0.004 µg/mL (≈ 0.00663 µM)

SMILES: COC(=O)C1(C)Nc2c(OS(=O)(=O)c3ccc(C)cc3)cc3c(c2C1=O)C(CO)CN3C(=O)c1cc2cc(OC)c(OC)c(OC)c2[nH]1 (stereo not drawn) [Compound 3]
- IC50 [3]: 2.5 µg/mL (≈ 3.68 µM)

SMILES: COC(=O)C1(C)Nc2c(O)cc3c(c2C1=O)C(CCl)CN3C(=O)c1cc2cc(OC)c(OC)c(OC)c2[nH]1 (stereo not drawn) [SF2582A]
- therapeutic effect on infection [1]: therapeutic effect on infection

SMILES: COC(=O)C1(C)Nc2c(O)cc3c(c2C1=O)CC(Cl)CN3C(=O)c1cc2cc(OC)c(OC)c(OC)c2[nH]1 (stereo not drawn) [SF2582B]
- therapeutic effect on infection [1]: therapeutic effect on infection
